Experimental findings from US20200016207A1, “[…] c-MPL PROVIDES LIGAND-DEPENDENT CO-STIMULATION AND CYTOKINE SIGNALS TO TCR-ENGINEERED T CELLS” (Baylor College of Medicine, priority 2017, published 2020) are described below.

Data set [1] deals with immune synapses between TCR+c-MPL+ T cells and BV173 leukemia cells. Put plainly: Immunological synapse imaging (confocal microscopy). Format: cell-based, human. Conditions: mean±SD. As for the experimental part: T cells isolated from sequential killing co-cultures and fresh BV173 target cells were mixed at E:T 1:2, incubated for 10 minutes, fixed, permeabilized, stained with the appropriate antibodies, and analyzed on a Leica TCS SP8 laser scanning microscope. T cells were co-cultured with BV173 cells at an E:T ratio of 1:5 in CTL media with no cytokines, rhTPO (50 ng/mL) or EP (0.1 μg/mL). After one killing (no cytokine condition) or three sequential killings (rhTPO and EP conditions), cells were collected and dead cells removed (Dead Cell Removal Kit, Miltenyi) (FIG. 4A). For confocal microscopy, T cells and fresh BV173 target cells were mixed at E:T ratio of 1:2, incubated for ten minutes in a tube and ten minutes on silane-coated glass slides (Electron Microscopy Sciences) at 37° C. Cells were then permeabilized and fixed with Perm/Fix solution (BD) for 15 minutes at room temperature and stained with anti-Pericentrin (rabbit, Abcam) and anti-Perforin Alexa-488 (mouse, BD Biosciences) primary antibodies. Phalloidin 568 (Life Technologies) was used to detect F-actin. Cells were imaged as Z stacks of 0.2 μm thickness to cover their entire volume on a Leica TCS SP8 laser scanning microscope using a 100× objective. Images were acquired with the LASAF software (Leica) and analyzed with Imaris software (Imaris) and Fiji.

Another data set relates to c-MPL+ T cells. Put plainly: EP dose-titration, T cell expansion on OKT3/CD28-coated plates. Format: cell-based, human. Here is the method:
Similar results were obtained with the TPO small molecule agonist EP. A dose-titration experiment was used to determine the optimal concentration of EP to support c-MPL+ T cell expansion (FIG. 2C). EP was previously shown to inhibit leukemia cell proliferation at higher concentrations (1-10 μg/ml) by reduction of intracellular iron, a c-MPL independent effect (Roth et al., 2012). NT or c-MPL+ T cells were re-activated on OKT3/CD28-coated plates in the presence of different EP concentrations and expansion of viable T cells was determined after 7 days. […] Thus, the effective EP concentration for c-MPL+ T cells was about 1 log lower than in previous reports assessing effects of EP on megakaryocytic progenitor cells or leukemia cells *Roth et al., 2012; Will et al., 2009). To assess c-MPL ligand-dependent signaling in TCR+c-MPL+ T cells, cells were left untreated (noCK) or treated with TPO50 or EP for 1 (left) or 24 hours (right). […] Next, it was evaluated whether rhTPO enhanced the anti-tumor function of TCR+c-MPL+ T cells using two different HLA-A*0201+survivin+hematologic malignancies as targets (U266 multiple myeloma, BV173 leukemia) (FIGS. 2E-2F). […] Again, addition of IL2 led to significant but antigen-independent enhancement of T cell expansion.

The mark [2] stands for this setting: after three tumor cell challenges.
[3] abbreviates: baseline after T cell expansion.

As to `CC1=NN(c2ccc(C)c(C)c2)C(=O)/C1=N\Nc1cccc(-c2cccc(C(=O)O)c2)c1O` [EP, eltrombopag, reference compound], in data set [1] (setting [2]), the “MTOC to synapse distance, co-culture” value was determined as 1.09±1.16 μm and the “perforin distance to the synapse (perforin convergence), co-culture” value turned out to be 4.25±1.28 μm. In data set [1] (after three tumor cell challenges, rhTPO 50 ng/mL or EP 0.1 μg/mL), the “actin accumulation at the synapse, co-culture” value was determined as 53.29±12.47%. Besides, in data set [1] (setting [3]), the “MTOC to synapse distance, baseline” value is on record as 2.42±2.14 μm; the “actin accumulation at the synapse, baseline” value is 40.95±14.82%; the “perforin distance to the synapse (perforin convergence), baseline” value is listed as 4.26±2.04 μm. Also, the “effect of EP treatment at 3 μg/ml on T cells” value in the data set with c-MPL+ T cells (3 μg/ml) is given as “uniformly lethal to T cells”. In the data set with c-MPL+ T cells (7 days), the “effect of EP levels higher than 0.1 μg/ml on T cells” value is recorded as “toxic to the T cells”. For the same compound, in the data set on c-MPL+ T cells (7 days, OKT3/CD28-coated plates), the “EP concentration retained to support c-MPL+ T cell expansion” value came to 0.1 µg/mL.
